Source: patent publication US5378803A, “Azole-fused peptides and processes for preparation thereof” (Sterling Winthrop Inc., priority 1992, dated 1995)
Residues, ends and D or L forms follow the SMILES beside them.

Molecular target: T1, Substance P (Cavia porcellus, UniProt P30547)
T1 construct: Strips of longitudinal muscle (derived from terminal ileum of adult male guinea pigs); from tissue; host or cells: longitudinal muscle strips of terminal ileum, adult male guinea pigs (Charles River)
Experiment: Guinea pig ileum test for Substance P antagonist effect
Assay type: cell-based
Details: isolated guinea pig ileum longitudinal muscle strips; Schild plot analysis; 5-10 min contact time; footnote a = limited data due to solubility, b = slope significantly different from -1; read-out: Substance P Antagonist pA2 (converted)
Description: As stated above the azole-fused peptides of Formula I are useful as Substance P antagonists and analgesics or as synthetic intermediates therefor.
Strips of longitudinal muscle (derived from terminal ileum of adult male guinea pigs (Charles River, 400-600 g.) are mounted in 5-ml. organ baths containing oxygenated Krebs solution containing l μM each of atropine and pyrilamine maintained at 30°-33° C. and connected to isometric transducers. Following tissue equilibration and repeated washing (45-60 min.), SP or an appropriate reference agonist is added cumulatively to the bath and contractions of the tissue are recorded. The bath is washed thoroughly and 30-45 min. is allowed to elapse before construction of a second reference agonist curve to assure reproducibility of the responses. Test compounds are similarly evaluated for agonist activity up to a maximum concentration of 10-100 μM. Regression analysis of the linear portion of the log concentration-percent maximal response curves provides the EC50 (and 95% confidence limits), the standard measure of agonist potency. When appropriate, relative molar potency ratios are calculated (EC50 reference/ED50 test drug). Antagonist activity is examined by pretreating thoroughly washed tissues with test compound (using a standard 5-10 min. contact time), then constructing a cumulative dose-response curve to the reference agonist. The effects of several concentrations of test antagonist, pooled across separate experiments, provide dose-ratio (EC50 shift) data for a standard Schild plot analysis, with computation of the pA2.

T1 sequence (P30547 whole entry): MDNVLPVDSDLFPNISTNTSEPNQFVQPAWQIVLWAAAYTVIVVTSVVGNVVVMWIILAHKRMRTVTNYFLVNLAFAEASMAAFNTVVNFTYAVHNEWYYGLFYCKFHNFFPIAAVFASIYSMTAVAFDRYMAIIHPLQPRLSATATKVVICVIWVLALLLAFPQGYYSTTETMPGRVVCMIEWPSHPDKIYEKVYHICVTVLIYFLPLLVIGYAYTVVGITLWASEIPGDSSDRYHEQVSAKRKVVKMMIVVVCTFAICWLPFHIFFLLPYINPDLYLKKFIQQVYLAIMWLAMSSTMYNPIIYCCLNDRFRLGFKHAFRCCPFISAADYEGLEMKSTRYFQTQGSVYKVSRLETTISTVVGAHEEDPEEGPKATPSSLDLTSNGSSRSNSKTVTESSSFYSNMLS

Point of comparison: CC(C)C[C@H](NC(=O)c1nc([C@H](Cc2ccccc2)NC(=O)[C@@H](Cc2c[nH]c3ccccc23)NC(=O)[C@@H]2CCCN2)sc1-c1c[nH]c2ccccc12)C(=O)N[C@@H](Cc1ccccc1)C(N)=O [Example 6], Kb 1.26 µM. Against it:
- CC(C)C[C@H](NC(=O)[C@@H](Cc1c[nH]c2ccccc12)NC(=O)c1nc(C2Cc3c([nH]c4ccccc34)CN2)sc1-c1ccccc1)C(=O)N[C@@H](Cc1ccccc1)C(N)=O (single isomer, unassigned) [Example 7] — higher, > 10 µM
- CC(C)C[C@H](NC(=O)[C@@H](Cc1c[nH]c2ccccc12)NC(=O)c1nc(C2Cc3c([nH]c4ccccc34)CN2)sc1-c1ccccc1)C(=O)N[C@@H](Cc1ccccc1)C(N)=O (single isomer, unassigned) [Example 8] — 6.3-fold higher, 7.94 µM
- CN(C)CCNC(=O)[C@@H](Cc1c[nH]c2ccccc12)NC(=O)c1nc(C(Cc2c[nH]c3ccccc23)NC(=O)[C@@H]2CCCN2)sc1-c1ccccc1 (single isomer, unassigned) [Example 11] — 6.3-fold higher, 7.94 µM
- CN(C)CCNC(=O)[C@@H](Cc1c[nH]c2ccccc12)NC(=O)c1nc(C(Cc2c[nH]c3ccccc23)NC(=O)[C@@H]2CCCN2)sc1-c1ccccc1 (single isomer, unassigned) [Example 12] — 4-fold higher, 5.01 µM
- CC(C)C[C@H](NC(=O)[C@@H](Cc1c[nH]c2ccccc12)NC(=O)c1nc([C@H](Cc2c[nH]c3ccccc23)NC(=O)[C@@H]2CCCN2)sc1-c1ccccc1)C(=O)N[C@@H](Cc1ccccc1)C(N)=O [Example 2] — 10-fold lower, 0.126 µM
- CC(C)C[C@H](NC(=O)[C@@H](Cc1c[nH]c2ccccc12)NC(=O)c1nc([C@@H](Cc2c[nH]c3ccccc23)NC(=O)[C@@H]2CCCN2)sc1-c1ccccc1)C(=O)N[C@@H](Cc1ccccc1)C(N)=O [Example 3] — 25-fold lower, 0.0501 µM
- CC(C)c1sc([C@@H](Cc2c[nH]c3ccccc23)NC(=O)[C@H](Cc2ccccc2)NC(=O)[C@@H](Cc2c[nH]c3ccccc23)NC(=O)[C@@H]2CCCN2)nc1C(=O)N[C@@H](Cc1ccccc1)C(N)=O [Example 4] (HELM PEPTIDE1{P.[dW].F.[CC(C)c1sc([C@@H](Cc2c[nH]c3ccccc23)N[*:1])nc1C(=O)[*:2]].F.[am]}$$$$V2.0) — 2.5-fold lower, 0.501 µM
- CC(C)c1sc([C@H](Cc2c[nH]c3ccccc23)NC(=O)[C@H](Cc2ccccc2)NC(=O)[C@@H](Cc2c[nH]c3ccccc23)NC(=O)[C@@H]2CCCN2)nc1C(=O)N[C@@H](Cc1ccccc1)C(N)=O [Example 5] (HELM PEPTIDE1{P.[dW].F.[CC(C)c1sc([C@H](Cc2c[nH]c3ccccc23)N[*:1])nc1C(=O)[*:2]].F.[am]}$$$$V2.0) — 10-fold lower, 0.126 µM
- CC(C)C[C@H](NC(=O)c1nc([C@H](Cc2ccccc2)NC(=O)[C@@H](Cc2c[nH]c3ccccc23)NC(=O)[C@@H]2CCCN2)oc1-c1c[nH]c2ccccc12)C(=O)N[C@@H](Cc1ccccc1)C(N)=O [Example 9] — 4-fold higher, 5.01 µM
- CC(C)C[C@H](NC(=O)c1nc([C@H](Cc2ccccc2)NC(=O)[C@@H](Cc2c[nH]c3ccccc23)NC(=O)[C@@H]2CCCN2)[nH]c1-c1c[nH]c2ccccc12)C(=O)N[C@@H](Cc1ccccc1)C(N)=O [Example 10] — the same, 1.26 µM
- CC(C)C[C@H](NC(=O)[C@@H](Cc1c[nH]c2ccccc12)NC(=O)c1nc([C@@H](Cc2c[nH]c3ccccc23)NC(=O)[C@@H]2CCCN2)[nH]c1-c1ccccc1)C(=O)N[C@@H](Cc1ccccc1)C(N)=O [Example 16] — 6.3-fold lower, 0.2 µM
- CC(C)C[C@H](NC(=O)[C@@H](Cc1c[nH]c2ccccc12)NC(=O)[C@H](Cc1ccccc1)NC(=O)[C@@H](Cc1c[nH]c2ccccc12)NC(=O)[C@@H]1CCCN1)c1ncc(-c2ccccc2)[nH]1 [Example 17] (HELM PEPTIDE1{P.[dW].F.[dW].[CC(C)C[C@H](N[*:1])c1ncc(-c2ccccc2)[nH]1]}$$$$V2.0) — 2.5-fold lower, 0.501 µM
- CC(C)C[C@H](NC(=O)[C@@H](Cc1c[nH]c2ccccc12)NC(=O)c1nc([C@@H](Cc2c[nH]c3ccccc23)NC(=O)[C@@H]2CCCN2)sc1-c1ccccc1)C(=O)N[C@@H](Cc1ccccc1)C(=O)O [Example 18] — 4-fold lower, 0.316 µM
- CC(C)C[C@H](NC(=O)[C@@H](Cc1c[nH]c2ccccc12)NC(=O)c1nc([C@@H](Cc2c[nH]c3ccccc23)NC(=O)[C@@H]2CCCN2)sc1-c1ccccc1)C(=O)O [Example 19] — higher, > 10 µM
- CC(C)C[C@H](NC(=O)[C@@H](Cc1c[nH]c2ccccc12)NC(=O)c1nc([C@H](N)Cc2c[nH]c3ccccc23)sc1-c1ccccc1)C(=O)O [Example 20] — higher, > 10 µM
- CC(C)c1sc([C@@H](Cc2c[nH]c3ccccc23)NC(=O)c2nc([C@@H](Cc3c[nH]c4ccccc34)NC(=O)[C@@H]3CCCN3)sc2-c2ccccc2)nc1C(=O)NC[C@@H](N)Cc1ccccc1 [Example 21] — higher, > 10 µM
- CC(C)C[C@H](NC(=O)[C@@H](Cc1c[nH]c2ccccc12)NC(=O)c1nc([C@@H](Cc2c[nH]c3ccccc23)NC(=O)[C@@H]2CCCN2)sc1-c1ccccc1)C(=O)N(C)C(Cc1ccccc1)C(N)=O (stereo partly drawn) [Example 22] — 16-fold lower, 0.0794 µM
- CC(C)C[C@H](NC(=O)[C@@H](Cc1c[nH]c2ccccc12)NC(=O)c1nc([C@@H](Cc2c[nH]c3ccccc23)NC(=O)[C@@H]2CCCN2)oc1-c1ccccc1)C(=O)N[C@@H](Cc1ccccc1)C(N)=O [Example 24] — 2-fold lower, 0.631 µM
- CC(C)c1sc([C@@H](Cc2c[nH]c3ccccc23)NC(=O)[C@H](Cc2ccccc2)NC(=O)[C@@H](Cc2c[nH]c3ccccc23)NC(=O)[C@@H]2CCCN2)nc1C(=O)NC[C@@H](N)Cc1ccccc1 [Example 25] — 1.6-fold lower, 0.794 µM
- CC(C)c1sc([C@@H](Cc2c[nH]c3ccccc23)NC(=O)[C@H](Cc2ccccc2)NC(=O)[C@@H](Cc2c[nH]c3ccccc23)NC(=O)[C@@H]2CCCN2)nc1CN(C)CCc1ccccc1 [Example 27] — higher, ≥ 10 µM
